How the values were obtained:
[1] = tested on: rhythmic bladder contractions; test: Isovolumetric bladder model, intravesical protocol; type: in vivo, rat
Description: Female rats were anesthetized with urethane. Ureters were ligated and sectioned. A catheter was inserted through the urinary meatus into the bladder before urethral ligature. Two protocols for testing compounds were used: intravenous (i.v.) or intravesical (i.ves.) administration.
In the second protocol, the bladder was filled first 3 times every 5 min with 100 μL of a solution of solutol/NMP […] containing 0.756 mg of compound (1) or with 100 μL of vehicle, then with 100 μL of saline every 5 min until the occurrence of RBC. A maximal volume of 3 mL was infused. The threshold volume inducing RBC in each group was compared. […] Furthermore, the threshold volume (TV) in the group treated with compound (1) reached 3 mL without RBC occurrence whereas, in the vehicle group, RBC occurred in all rats with a mean volume of 0.7±0.09 ml.

hTRPV1 channels = target: T1, hTRPV1 channels (Homo sapiens, UniProt Q8NER1); test: Selectivity analysis, calcium influx assay, hTRPV1 in HEK293 cells; type: cell-based
T1 construct: expressed in transfected cells; host or cells: HEK293
Description: (§1) The objective of this study was to evaluate the effects in vitro of compound 1 on 3 cloned human channels expressed in HEK293 or CHO cells using the Fluo-8 calcium kit (AAT Bioquest, Inc.), and a Fluorescence Imaging Plate Reader (FLIPR^TETRA™) instrument. The following 3 cloned human channels were evaluated in this study. • 1. Cloned hTRPM8 channels (encoded by the human TRPM8 gene, stably expressed in CHO cells), • 2. Cloned hTRPV1 channels (encoded by the human TRPV1 gene, stably expressed in HEK293 cells), • 3. Cloned hTRPV4 channels (encoded by the human TRPV4 gene, stably expressed in CHO cells).
(§2) The effects of […] (0.001, 0.01, 1, and 10 μM) of compound (1) were evaluated on these three TRP channels (n>3) using the following experimental procedure for each channel tested:
(§3) The ability of compound (1) to act as an antagonist of TRPV1 was evaluated with a calcium influx assay. The signal elicited in the presence of the positive control agonist (0.1 μM capsaicin) was set to 100% and the signal in the presence of the antagonist (5 μM ruthenium red) was set to 0.

hTRPV4 channels = target: T2, hTRPV4 channels (Homo sapiens, UniProt Q9HBA0); test: Selectivity analysis, calcium influx assay, hTRPV4 in CHO cells; type: cell-based
T2 construct: expressed in transfected cells; host or cells: CHO
Description: as §1, §2
as §3, with “TRPV4” for “TRPV1”, “(10” for “(0.1”, “GSK1016790A)” for “capsaicin)”, “0. Values were considered significant if the test article mean was three or more standard deviations away from the positive control agonist mean.” for “0.”

hepatocytes [2] = test: Metabolic stability hepatocytes, rat; type: in vitro ADME
hepatocytes [3] = test: Metabolic stability hepatocytes, human; type: in vitro ADME
CYP1A2 = target: T3, CYP1A2 (Homo sapiens, UniProt P05177); test: CYP inhibition 1A2; type: in vitro ADME; conditions: 1A2, 10 μM
T3 sequence (P05177 1-516): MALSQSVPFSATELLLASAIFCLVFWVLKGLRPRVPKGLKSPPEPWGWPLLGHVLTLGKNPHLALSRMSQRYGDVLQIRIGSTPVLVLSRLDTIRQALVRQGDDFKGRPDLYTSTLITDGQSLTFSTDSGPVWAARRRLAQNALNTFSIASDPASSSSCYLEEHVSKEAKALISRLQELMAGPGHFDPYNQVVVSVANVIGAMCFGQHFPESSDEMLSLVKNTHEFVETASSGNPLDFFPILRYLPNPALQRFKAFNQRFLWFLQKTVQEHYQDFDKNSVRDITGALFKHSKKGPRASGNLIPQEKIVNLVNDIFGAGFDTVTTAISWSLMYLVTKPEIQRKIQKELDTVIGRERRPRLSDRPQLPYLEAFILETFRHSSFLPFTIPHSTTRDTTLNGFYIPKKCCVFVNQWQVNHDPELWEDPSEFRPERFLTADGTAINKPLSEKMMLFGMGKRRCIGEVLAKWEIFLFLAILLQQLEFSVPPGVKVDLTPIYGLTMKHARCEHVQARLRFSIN

CYP2C9 = CYP2C9 (Homo sapiens, UniProt P11712); test: CYP inhibition 2C9; type: in vitro ADME; conditions: 2C9, 10 μM
CYP3A4 = CYP3A4 (Homo sapiens, UniProt P08684); test: CYP inhibition 3A4; type: in vitro ADME; conditions: 3A4, 10 μM
hERG = hERG (Homo sapiens, UniProt Q12809); test: hERG binding
Plasma stability, rat = type: in vitro ADME
Plasma stability, human = type: in vitro ADME
[4] = Plasma Protein Binding, rat; type: in vitro ADME
[5] = Plasma Protein Binding, human; type: in vitro ADME
human TRPM8 = human TRPM8 (Homo sapiens, UniProt Q7Z2W7); test: Selectivity analysis, calcium influx assay (Fluo-8, FLIPR TETRA), hTRPM8 in CHO cells; type: cell-based; design: expressed in transfected cells; host or cells: CHO
Description: The following 3 cloned human channels were evaluated in this study. • 1. Cloned hTRPM8 channels (encoded by the human TRPM8 gene, stably expressed in CHO cells), • 2. Cloned hTRPV1 channels (encoded by the human TRPV1 gene, stably expressed in HEK293 cells), • 3. Cloned hTRPV4 channels (encoded by the human TRPV4 gene, stably expressed in CHO cells). […] The ability of compound (1) to act as an antagonist of TRPM8 was evaluated with a calcium influx assay. […] Values were considered significant and highlighted in yellow if the test article mean was three or more standard deviations away from the positive control agonist mean.

[6] = CHO, read-out: normalized % inhibition TRPM8

Sequence of human TRPM8 (Q7Z2W7 whole entry): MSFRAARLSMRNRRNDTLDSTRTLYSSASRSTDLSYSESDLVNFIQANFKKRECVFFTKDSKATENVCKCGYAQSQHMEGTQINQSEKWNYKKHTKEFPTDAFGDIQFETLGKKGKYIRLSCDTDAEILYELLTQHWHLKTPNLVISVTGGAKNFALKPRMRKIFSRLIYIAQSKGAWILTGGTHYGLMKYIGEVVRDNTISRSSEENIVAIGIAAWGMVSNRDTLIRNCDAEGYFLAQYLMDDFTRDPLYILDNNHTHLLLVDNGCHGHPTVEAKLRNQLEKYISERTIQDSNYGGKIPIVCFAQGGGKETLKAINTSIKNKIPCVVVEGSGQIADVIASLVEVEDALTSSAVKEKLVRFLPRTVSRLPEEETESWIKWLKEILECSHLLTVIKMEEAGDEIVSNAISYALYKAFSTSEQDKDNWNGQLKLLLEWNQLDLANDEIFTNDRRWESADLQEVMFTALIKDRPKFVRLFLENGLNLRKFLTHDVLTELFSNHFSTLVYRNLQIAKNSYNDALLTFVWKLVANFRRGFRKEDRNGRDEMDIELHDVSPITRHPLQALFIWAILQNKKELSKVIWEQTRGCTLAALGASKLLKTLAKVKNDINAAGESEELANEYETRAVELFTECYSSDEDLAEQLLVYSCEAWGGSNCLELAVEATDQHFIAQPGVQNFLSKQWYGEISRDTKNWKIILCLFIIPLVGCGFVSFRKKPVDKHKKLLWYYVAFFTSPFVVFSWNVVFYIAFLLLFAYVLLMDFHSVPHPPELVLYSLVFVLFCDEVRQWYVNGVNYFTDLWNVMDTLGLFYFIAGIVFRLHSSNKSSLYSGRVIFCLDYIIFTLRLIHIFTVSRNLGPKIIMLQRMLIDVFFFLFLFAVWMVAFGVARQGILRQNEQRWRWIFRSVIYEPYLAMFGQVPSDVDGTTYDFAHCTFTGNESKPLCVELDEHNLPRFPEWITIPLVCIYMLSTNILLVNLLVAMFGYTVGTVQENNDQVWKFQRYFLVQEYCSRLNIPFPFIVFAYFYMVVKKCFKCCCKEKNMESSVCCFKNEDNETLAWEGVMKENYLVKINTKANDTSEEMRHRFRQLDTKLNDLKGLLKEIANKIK
T1 sequence (Q8NER1 whole entry): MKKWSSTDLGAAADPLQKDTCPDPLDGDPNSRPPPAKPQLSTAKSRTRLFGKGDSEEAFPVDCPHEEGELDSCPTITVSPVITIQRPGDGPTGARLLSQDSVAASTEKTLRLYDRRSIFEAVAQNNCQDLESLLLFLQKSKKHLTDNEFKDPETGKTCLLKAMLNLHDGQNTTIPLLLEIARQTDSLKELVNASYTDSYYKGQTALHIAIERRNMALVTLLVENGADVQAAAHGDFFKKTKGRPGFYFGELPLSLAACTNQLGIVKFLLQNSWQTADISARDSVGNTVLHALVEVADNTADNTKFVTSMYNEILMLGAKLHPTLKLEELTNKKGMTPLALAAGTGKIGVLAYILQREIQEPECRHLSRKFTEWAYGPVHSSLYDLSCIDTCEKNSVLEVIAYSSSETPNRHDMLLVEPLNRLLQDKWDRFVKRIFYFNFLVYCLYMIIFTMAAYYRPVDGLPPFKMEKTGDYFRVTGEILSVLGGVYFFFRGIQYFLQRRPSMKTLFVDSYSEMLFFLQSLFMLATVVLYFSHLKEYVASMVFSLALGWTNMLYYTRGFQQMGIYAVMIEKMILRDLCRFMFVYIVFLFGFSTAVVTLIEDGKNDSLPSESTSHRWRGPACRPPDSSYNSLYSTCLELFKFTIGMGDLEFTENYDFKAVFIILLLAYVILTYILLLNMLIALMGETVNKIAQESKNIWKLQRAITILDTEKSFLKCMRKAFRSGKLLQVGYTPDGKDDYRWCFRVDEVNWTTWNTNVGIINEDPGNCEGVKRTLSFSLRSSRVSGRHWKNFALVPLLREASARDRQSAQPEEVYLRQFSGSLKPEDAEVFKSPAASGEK
T2 sequence (Q9HBA0 whole entry): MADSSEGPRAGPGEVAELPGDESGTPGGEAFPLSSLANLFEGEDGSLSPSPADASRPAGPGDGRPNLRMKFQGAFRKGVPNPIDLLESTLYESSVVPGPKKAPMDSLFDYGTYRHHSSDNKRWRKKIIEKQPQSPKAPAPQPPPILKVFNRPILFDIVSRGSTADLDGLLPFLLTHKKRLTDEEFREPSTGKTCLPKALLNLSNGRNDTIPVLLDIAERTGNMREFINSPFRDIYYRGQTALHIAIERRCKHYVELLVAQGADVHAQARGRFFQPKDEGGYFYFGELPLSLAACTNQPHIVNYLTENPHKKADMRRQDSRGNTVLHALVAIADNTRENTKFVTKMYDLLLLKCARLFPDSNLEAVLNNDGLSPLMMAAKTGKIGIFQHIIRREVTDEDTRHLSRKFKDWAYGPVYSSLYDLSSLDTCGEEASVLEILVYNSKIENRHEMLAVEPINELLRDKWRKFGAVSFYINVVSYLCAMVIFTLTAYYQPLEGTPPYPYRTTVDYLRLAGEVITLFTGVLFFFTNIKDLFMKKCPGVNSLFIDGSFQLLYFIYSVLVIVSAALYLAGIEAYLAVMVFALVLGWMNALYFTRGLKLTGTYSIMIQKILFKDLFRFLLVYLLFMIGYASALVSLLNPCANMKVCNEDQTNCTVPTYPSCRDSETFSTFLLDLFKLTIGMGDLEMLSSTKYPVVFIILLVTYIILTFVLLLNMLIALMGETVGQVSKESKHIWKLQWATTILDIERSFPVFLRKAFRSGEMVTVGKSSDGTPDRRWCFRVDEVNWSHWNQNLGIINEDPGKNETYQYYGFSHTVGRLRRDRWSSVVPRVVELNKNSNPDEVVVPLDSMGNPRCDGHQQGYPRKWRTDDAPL
Sequence of hERG (Q12809 whole entry): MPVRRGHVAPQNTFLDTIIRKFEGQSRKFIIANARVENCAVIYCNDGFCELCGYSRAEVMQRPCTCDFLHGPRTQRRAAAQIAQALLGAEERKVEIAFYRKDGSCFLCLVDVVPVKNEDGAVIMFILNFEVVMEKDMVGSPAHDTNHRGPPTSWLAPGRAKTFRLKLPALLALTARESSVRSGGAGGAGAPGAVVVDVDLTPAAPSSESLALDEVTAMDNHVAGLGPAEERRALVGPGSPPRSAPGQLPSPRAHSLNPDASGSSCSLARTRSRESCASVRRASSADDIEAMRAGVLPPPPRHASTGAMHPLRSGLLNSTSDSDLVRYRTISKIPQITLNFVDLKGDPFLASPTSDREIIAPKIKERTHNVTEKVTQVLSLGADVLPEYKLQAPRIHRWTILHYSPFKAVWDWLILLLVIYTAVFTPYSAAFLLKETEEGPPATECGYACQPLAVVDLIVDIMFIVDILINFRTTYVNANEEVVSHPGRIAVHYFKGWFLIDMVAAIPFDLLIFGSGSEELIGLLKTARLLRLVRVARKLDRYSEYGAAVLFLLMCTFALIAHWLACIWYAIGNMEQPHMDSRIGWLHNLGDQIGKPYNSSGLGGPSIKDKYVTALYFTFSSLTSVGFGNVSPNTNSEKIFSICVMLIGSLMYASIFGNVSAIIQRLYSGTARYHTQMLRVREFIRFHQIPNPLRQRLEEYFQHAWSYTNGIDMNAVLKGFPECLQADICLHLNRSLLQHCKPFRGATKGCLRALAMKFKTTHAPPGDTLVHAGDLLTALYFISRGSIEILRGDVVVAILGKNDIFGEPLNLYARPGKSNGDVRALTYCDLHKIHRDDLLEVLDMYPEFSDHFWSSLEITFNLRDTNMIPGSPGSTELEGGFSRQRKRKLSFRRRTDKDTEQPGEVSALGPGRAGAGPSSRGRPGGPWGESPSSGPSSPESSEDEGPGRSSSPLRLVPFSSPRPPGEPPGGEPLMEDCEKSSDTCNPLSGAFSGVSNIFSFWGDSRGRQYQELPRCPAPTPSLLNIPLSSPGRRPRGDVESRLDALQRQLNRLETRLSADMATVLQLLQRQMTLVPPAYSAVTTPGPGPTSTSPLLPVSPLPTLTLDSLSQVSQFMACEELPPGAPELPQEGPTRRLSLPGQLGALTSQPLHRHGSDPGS
Sequence of CYP2C9 (P11712 whole entry): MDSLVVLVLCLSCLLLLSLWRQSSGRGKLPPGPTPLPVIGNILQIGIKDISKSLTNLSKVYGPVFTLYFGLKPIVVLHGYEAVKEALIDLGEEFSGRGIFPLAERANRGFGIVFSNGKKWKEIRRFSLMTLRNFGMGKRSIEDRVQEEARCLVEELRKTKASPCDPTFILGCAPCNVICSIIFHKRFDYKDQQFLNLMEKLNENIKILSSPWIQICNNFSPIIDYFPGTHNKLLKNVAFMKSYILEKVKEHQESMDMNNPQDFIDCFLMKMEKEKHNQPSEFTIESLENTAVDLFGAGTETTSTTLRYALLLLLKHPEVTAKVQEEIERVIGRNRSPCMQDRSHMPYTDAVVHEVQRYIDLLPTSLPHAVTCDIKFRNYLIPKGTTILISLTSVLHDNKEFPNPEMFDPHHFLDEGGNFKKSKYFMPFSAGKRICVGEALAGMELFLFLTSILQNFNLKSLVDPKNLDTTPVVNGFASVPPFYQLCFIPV
Sequence of CYP3A4 (P08684 whole entry): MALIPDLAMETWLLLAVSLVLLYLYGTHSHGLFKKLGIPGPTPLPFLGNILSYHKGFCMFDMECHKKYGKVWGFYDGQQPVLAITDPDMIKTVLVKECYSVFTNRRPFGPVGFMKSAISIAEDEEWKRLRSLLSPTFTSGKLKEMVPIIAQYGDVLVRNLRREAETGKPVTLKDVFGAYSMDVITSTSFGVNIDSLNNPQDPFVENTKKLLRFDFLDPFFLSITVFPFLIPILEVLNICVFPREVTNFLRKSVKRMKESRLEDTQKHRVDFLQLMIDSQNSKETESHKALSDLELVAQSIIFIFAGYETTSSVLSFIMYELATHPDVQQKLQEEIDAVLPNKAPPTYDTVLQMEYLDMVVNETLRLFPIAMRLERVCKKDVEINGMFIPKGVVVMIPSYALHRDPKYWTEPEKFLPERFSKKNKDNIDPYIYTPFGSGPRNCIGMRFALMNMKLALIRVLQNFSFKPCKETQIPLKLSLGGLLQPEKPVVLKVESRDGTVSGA

inhibition at 0.001 µM (hTRPV1 channels; HEK293, 0.001 μM, 0.1 μM capsaicin = 100%, 5 μM ruthenium red = 0, read-out: normalized % inhibition TRPV1): -9.14%
inhibition at 0.01 µM (hTRPV1 channels; HEK293, 0.01 μM, 0.1 μM capsaicin, read-out: normalized % inhibition TRPV1): 5.29%
inhibition at 0.1 µM (hTRPV1 channels; HEK293, 0.1 μM, 0.1 μM capsaicin, read-out: normalized % inhibition TRPV1): 2.12%
inhibition at 1 µM (hTRPV1 channels; HEK293, 1 μM, 0.1 μM capsaicin, read-out: normalized % inhibition TRPV1): 5.37%
inhibition at 10 µM (hTRPV1 channels; HEK293, 10 μM, 0.1 μM capsaicin, read-out: normalized % inhibition TRPV1): 4.9%
inhibition of TRPV1 ion channel (in words) (hTRPV1 channels; all the assay concentrations): do not show any relevant inhibition
inhibition at 0.001 µM (hTRPV4 channels; 0.001 μM, 10 μM GSK1016790A = 100%, 5 μM ruthenium red = 0, read-out: normalized % inhibition TRPV4): 13.3%
inhibition at 0.01 µM (hTRPV4 channels; 0.01 μM, 10 μM GSK1016790A, read-out: normalized % inhibition TRPV4): 9.03%
inhibition at 0.1 µM (hTRPV4 channels; 0.1 μM, 10 μM GSK1016790A, read-out: normalized % inhibition TRPV4): 12.2%
inhibition at 1 µM (hTRPV4 channels; 1 μM, 10 μM GSK1016790A, read-out: normalized % inhibition TRPV4): 1.97%
inhibition at 10 µM (hTRPV4 channels; 10 μM, 10 μM GSK1016790A, read-out: normalized % inhibition TRPV4): 85.7%
Metabolic stability hepatocytes (% remaining at 120 min @1 μM) (hepatocytes [2]): 5.0%
Metabolic stability hepatocytes (% remaining at 120 min @1 μM) (hepatocytes [3]): 2.6%
inhibition at 10 µM (CYP1A2): 98.8%
inhibition at 10 µM (CYP2C9): 63.1%
inhibition at 10 µM (CYP3A4): 33.3%
Plasma stability (% remaining) @10 μM (Plasma stability, rat): 87%
Plasma stability (% remaining) @10 μM (Plasma stability, human): 96%
fraction unbound at 10 μM [4]: 0.03
fraction unbound at 10 μM [5]: 0.02
inhibition at 0.001 µM (human TRPM8; [6]): -25.2%
inhibition at 0.01 µM (human TRPM8; [6]): 21.4%
inhibition at 0.1 µM (human TRPM8; [6]): 95.6%
inhibition at 1 µM (human TRPM8; [6]): 95.6%
inhibition at 10 µM (human TRPM8; [6]): 96.4%
IC50 (human TRPM8; read-out: IC50 (TRPM8)): 70 nM
Structure (SMILES): Cl.Clc1c(OCCNCc2ccco2)ccc2ccccc12 [Compound 1, 2-[(1-chloronaphthalen-2-yl)oxy]-N-(furan-2-ylmethyl)ethanaminium chloride]
effect on Amplitude of Micturition (AM) [1]: did not change AM
effect on rhythmic bladder contractions (RBC) ([1]; 3 x 100 μL containing 0.756 mg): completely abolished RBC
threshold volume (TV) inducing RBC ([1]; maximal volume infused 3 mL, no RBC occurrence): > 3 mL
hERG binding @10 μM (hERG): No effect

Reference: patent publication US8906946B2, “TRPM8 receptor antagonists” (Dompe' S.p.A., priority 2011, dated 2014)
